# Test results taken from PubChem BioAssay AID2060906 (Molecular Pharmacology Branch, DTP, NCI, 2025).
# Tested on: 485176-168-R4-J1-PDC complex spheroid growth
# Experiment: Anticancer human tumor 485176-168-R4-J1-PDC patient-derived pancreatic adenocarcinoma cell line growth inhibition [RAS]
# Details: for IC50: curve of first compound; for viability, T/C: stronger effect = lower value
# Excerpt: RAS pathway inhibitors in Combinations in Complex Spheroids
# A high-throughput screen of multi-cell type tumor spheroids was designed to identify active combinations of RAS pathway inhibitors and targeted small molecules. Complex spheroids include a stromal component modeled by human endothelial cells (HUVEC) and fibroblasts modeled by human mesenchymal stem cells (MSCs). The concentration ranges selected for each drug and investigational agent were based upon clinically achievable concentrations if the clinical Cmax of the agent was known.
# Compounds. The drugs and investigational agents: abemaciclib (NSC768073), cobimetinib (NSC768068), divarasib (GDC6063, NSC841802), docetaxel (NSC628503), GDC-1971 (RLY-1971, NSC841576), gemcitabine (NSC613327), inavolisib (NSC800729), ipatasertib (NSC767898), KB-0742 (NSC834161), MRTX-1133 (NSC836407), osimertinib (NSC779217), RMC-4630 (NSC839698), RMC-6236 (NSC851965), RMC-6291 (NSC852671), Ro-3306 (NSC812927), sapanisertib (NSC764658), SN-38 (NSC673596), staurosporine (NSC755774), SY5609 (NSC837396), and tovorafenib (DAY101, NSC766906), were obtained from the National Cancer Institute (NCI) Developmental Therapeutics Program Chemical Repository. The FDA-approved anticancer drug set is available from the NCI Developmental Therapeutics Program. […] The stock solutions were prepared in dimethyl sulfoxide (DMSO, Sigma-Aldrich, St. Louis, MO, cat. D2650) at 800-fold the tested concentration and stored at -70 degrees C prior to their use. All drugs and investigational agents were tested over a range starting from a high concentration at or near the clinical Cmax and decreasing in half-log increments. If the clinical Cmax for an agent had not been determined, the highest concentration tested was 10 microM.
# Cell Culture. All cells were maintained in an incubator at 37 degrees C and 5% CO2 with 95% humidity. The PDC lines were cultured according to standard operating procedures established by the NCI PDMR. All PDCs were thawed and cultured in Matrigel-coated flasks prepared with a working solution of 1X Ham's F-12 nutrient mix, without supplementation (Invitrogen, Waltham, MA, cat. 11765054), 100 U/mL penicillin-streptomycin (Invitrogen, cat. 15140122), and 2.5% Matrigel (Corning Inc., Corning, NY, cat. 354248) for the first three passages. The 362531-283-R-J2-PDC and 782815-120-R-J1-PDC lines were cultured in 6C/Colon 1B media, which includes advanced DMEM/F-12 (Thermo Fisher Scientific, cat. 12634028), 10 mM HEPES (Thermo Fisher Scientific, cat. 15630080), 1X GlutaMAX supplement (Thermo Fisher Scientific, cat. 35050061), 0.1 mg/mL primocin (InvivoGen, San Diego, CA, cat. ant-pm-2), 10% defined fetal bovine serum, heat inactivated (HyClone Laboratories Inc., Logan, UT, cat. SH30070.03HI), 50% L-WRN conditioned media (ATCC, cat. CRL-3276), 1.25 mM N-Acetyl-L-cysteine (Sigma-Aldrich, cat. A9165), 10 mM nicotinamide (Sigma-Aldrich, cat. N0636), 1X B-27 supplement (Thermo Fisher Scientific, cat. 17504044), 1X N-2 supplement (Thermo Fisher Scientific, cat. 17502048), 50 ng/mL human EGF (Thermo Fisher Scientific, cat. PHG0311), and 10 microM Y-27632 dihydrochloride (Tocris Bioscience, cat. 1254). The K12877-001-R-J1-PDC line was cultured in 6I media, which includes all 6C/Colon 1B media plus 10 ng/mL human FGF-10 (PeproTech, cat. 100-26), 1 ng/mL human FGF-2 (PeproTech, cat. 100-18B), 1 µM prostaglandin E2 (Tocris Bioscience, cat. 2296), […] hydrocortisone (Sigma-Aldrich, cat. H4001), and […] bovine insulin (Sigma-Aldrich, cat. I6634). The K86415-001-R-J1-PDC line was cultured in 6D media, which includes all 6C/Colon 1B media components minus the L-WRN conditioned media. The 485176-168-R4-J1-PDC was cultured in PANC media, which includes all 6C/Colon 1B media plus 100 ng/mL human FGF-10 (PeproTech, cat. 100-26), 500 nM SB-431542 (Selleckchem, cat. S1067), and 10 nM gastrin (Tocris Bioscience, cat. 3006). […]
# 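Also: spheroids exposed to compounds for seven days before readout.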
# 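For viability, T/C in this document: luminescence viability expressed relative to DMSO vehicle wells set as 100%.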
smiles,measurement,setting,value
O=C(c1ccc(F)c(F)c1Nc1ccc(I)cc1F)N1CC(O)([C@@H]2CCCCN2)C1 + C=CC(=O)N1CCN(c2nc(OCC3CCCN3C)nc3c(F)c(-c4nc(N)cc(C)c4C(F)(F)F)c(Cl)cc23)C(C)C1,IC50,second compound 0.00316 µM,230 nM
same,IC50,second compound 0.01 µM,212 nM
same,IC50,second compound 0.0316 µM,195 nM
same,IC50,second compound 0.1 µM,327 nM
same,IC50,second compound 0.316 µM,148 nM
same,IC50,second compound 1 µM,324 nM
same,"viability, T/C","second compound 0.00316 µM, first compound 0.00316 µM",86%
same,"viability, T/C","second compound 0.00316 µM, first compound 0.01 µM",90.4%
same,"viability, T/C","second compound 0.00316 µM, first compound 0.0316 µM",72%
same,"viability, T/C","second compound 0.00316 µM, first compound 0.1 µM",61.1%
same,"viability, T/C","second compound 0.00316 µM, first compound 0.316 µM",47.1%
same,"viability, T/C","second compound 0.00316 µM, first compound 1 µM",33%
same,"viability, T/C","second compound 0.01 µM, first compound 0.00316 µM",105%
same,"viability, T/C","second compound 0.01 µM, first compound 0.01 µM",80.9%
same,"viability, T/C","second compound 0.01 µM, first compound 0.0316 µM",70.3%
same,"viability, T/C","second compound 0.01 µM, first compound 0.1 µM",61.9%
same,"viability, T/C","second compound 0.01 µM, first compound 0.316 µM",48.5%
same,"viability, T/C","second compound 0.01 µM, first compound 1 µM",30.9%
same,"viability, T/C","second compound 0.0316 µM, first compound 0.00316 µM",96.1%
same,"viability, T/C","second compound 0.0316 µM, first compound 0.01 µM",90.7%
same,"viability, T/C","second compound 0.0316 µM, first compound 0.0316 µM",77%
same,"viability, T/C","second compound 0.0316 µM, first compound 0.1 µM",55.5%
same,"viability, T/C","second compound 0.0316 µM, first compound 0.316 µM",47.4%
same,"viability, T/C","second compound 0.0316 µM, first compound 1 µM",35.9%
same,"viability, T/C","second compound 0.1 µM, first compound 0.00316 µM",96.4%
same,"viability, T/C","second compound 0.1 µM, first compound 0.01 µM",82.5%
same,"viability, T/C","second compound 0.1 µM, first compound 0.0316 µM",73.5%
same,"viability, T/C","second compound 0.1 µM, first compound 0.1 µM",69.2%
same,"viability, T/C","second compound 0.1 µM, first compound 0.316 µM",49.4%
same,"viability, T/C","second compound 0.1 µM, first compound 1 µM",34.4%
same,"viability, T/C","second compound 0.316 µM, first compound 0.00316 µM",90.6%
same,"viability, T/C","second compound 0.316 µM, first compound 0.01 µM",86.2%
same,"viability, T/C","second compound 0.316 µM, first compound 0.0316 µM",84.1%
same,"viability, T/C","second compound 0.316 µM, first compound 0.1 µM",52.6%
same,"viability, T/C","second compound 0.316 µM, first compound 0.316 µM",49.2%
same,"viability, T/C","second compound 0.316 µM, first compound 1 µM",37.1%
same,"viability, T/C","second compound 1 µM, first compound 0.00316 µM",86.1%
same,"viability, T/C","second compound 1 µM, first compound 0.01 µM",72.9%
same,"viability, T/C","second compound 1 µM, first compound 0.0316 µM",58%
same,"viability, T/C","second compound 1 µM, first compound 0.1 µM",70.8%
same,"viability, T/C","second compound 1 µM, first compound 0.316 µM",50.8%
same,"viability, T/C","second compound 1 µM, first compound 1 µM",36.6%
